Test results as given in US5504212A, “Inhibitors of farnesyl-protein transferase” (Merck & Co., Inc., priority 1992, dated 1996).
pIC50: −log10 of the molar value.

System: EMG-CoA reductase
Experiment: not given
Conditions: cited from earlier work

| SMILES | inhibition of EMG-CoA reductase |
| --- | --- |
| CC[C@H](C)C(=O)O[C@H]1C[C@@H](C)C=C2C=C[C@H](C)[C@H](CC[C@@H]3C[C@@H](O)CC(=O)O3)[C@H]21 [lovastatin] | inhibit EMG-CoA reductase |
| CC[C@H](C)C(=O)O[C@H]1CCC=C2C=C[C@H](C)[C@H](CC[C@@H]3C[C@@H](O)CC(=O)O3)[C@H]21 [compactin] | inhibit EMG-CoA reductase |

Biological target: recombinant human farnesyl transferase (Homo sapiens, UniProt P49354+P49356)
Experiment: In vitro inhibition of ras farnesyl transferase
Assay type: biochemical
Conditions: read-out: ID50, Inhibition of RAS farnesylation (concentration which gives 50% inhibition of FTase)
Method: In vitro inhibition of ras farnesyl transferase
The assay was conducted as described in Pompliano, et. al., Biochemistry 31, 3800 (1992) with the exception of utilizing recombinant human farnesyl transferase in place of the partially purified bovine enzyme described therein.

| pIC50 | SMILES |
| --- | --- |
| 7.70 | CC[C@H](C)[C@@H](/C=C/[C@H](C(=O)N[C@@H](CCSC)C(=O)O)C(C)C)NC[C@@H](N)CS [5(S)-2(R)-amino-3-mercaptopropylamino!-6(S)-methyl-2(R)-i-propyl-3,4-E-octenoyl-methionine] |
| 8.72 | CC[C@H](C)[C@@H](/C=C/[C@@H](Cc1ccccc1)C(=O)N[C@@H](CCSC)C(=O)O)NC[C@@H](N)CS [5(S)-2(R)-amino-3-mercaptopropylamino!-6(S)-methyl-2(R)-benzyl-3,4-E-octenoyl-methionine] |
| 8.40 | CCC[C@H](/C=C/[C@@H](NC[C@@H](N)CS)[C@@H](C)CC)C(=O)N[C@@H](CCO)C(=O)O [5(S)-2(R)-amino-3-mercaptopropylamino!-6(S)-methyl-2(R)-n-propyl-3,4-E-octenoyl-homoserine] |
| 8.46 | CC[C@H](C)[C@@H](/C=C/[C@H](C(=O)N[C@@H](CCO)C(=O)O)C(C)C)NC[C@@H](N)CS [5(S)-2(R)-amino-3-mercaptopropyl-amino!-6(S)-methyl-2(R)-i-propyl-3,4-E-octenoyl-homoserine] |
| 8.30 | CC(C)[C@H](/C=C/[C@@H](NC[C@@H](N)CS)C(C)C)C(=O)N[C@@H](CCO)C(=O)O [5(S)-2(R)-amino-3-mercaptopropylamino!-6-methyl-2(R)-i-propyl-3,4-E-heptenoyl-homoserine] |
| 8.82 | CCCC[C@H](/C=C/[C@@H](NC[C@@H](N)CS)[C@@H](C)CC)C(=O)N[C@@H](CCO)C(=O)O [5(S)-2(R)-amino-3-mercaptopropyl-amino!-6(S)-methyl-2(R)-n-butyl-3,4-E-octenoyl-homoserine] |
| 8.60 | CCCC[C@H](/C=C/[C@@H](NC[C@@H](N)CS)[C@@H](C)CC)C(=O)N[C@@H](CCSC)C(=O)O [5(S)-2(R)-amino-3-mercaptopropyl-amino!-6(S)-methyl-2(R)-n-butyl-3,4-E-octenoyl-methionine] |

System: Ras farnesylation in the v-ras cell line
Experiment: In vivo ras farnesylation assay (v-ras cell line)
Assay type: cell-based
Conditions: v-ras cells; 4 h pretreatment at 37° C., then 20 h labelling; read-out: IC50, Inhibition of Ras Farnesylation in the v-ras cell line
Method: In vivo ras farnesylation assay
The cell line used in this assay was the v-ras line, which expressed vital Ha-ras p21. The assay was performed essentially as described in DeClue, J. E. et. al., Cancer Research 51, 712-717, (1991). Cells in 10 cm dishes at 50-75% confluency were treated with the test compound (final concentration of solvent, methanol or dimethyl sulfoxide, was 0.1%). After 4 hours at 37° C., the cells were labelled in 3 ml methionine-free DMEM supplemeted with 10% regular DMEM, 2% fetal bovine serum and 400 μCi ^35 S!methionine (1000 Ci/mmol). After an additional 20 hours, the cells were lysed in 1 ml lysis buffer (1% NP40/20 mMHEPES, pH 7.5/5 mM MgCl2 /1 mM DTT/10 μg/ml aprotinen/2 μg/ml leupeptin/2 μg/ml antipain/0.5 mM PMSF) and the lysates cleared by centrifugation at 100,000×g for 45 min. Aliqouts of lysates containing equal numbers of acid-precipitable counts were bought to 1 ml with IP buffer (lysis buffer lacking DTT) and immunoprecipitated with the ras-specific monoclonal antibody Y13-259 (Furth, M. E. et. al., J. Virol. 43, 294-304, (1982)). Following a 2 hour antibody incubation at 4° C., 200 μl of a 25% suspension of protein A-Sepharose coated with rabbit anti rat IgG was added for 45 min. The immunoprecipitates were washed four times with IP was buffer ([…] HEPES, pH 7.5/1 mM EDTA/ 1% Triton X-100.0.5% deoxycholate/0.1%/SDS/0.1M NaCl) boiled in SDS-PAGE sample buffer and loaded on 13% acrylamide gels. When the dye front reached the bottom, the gel was fixed, soaked in Enlightening, dried and autoradiographed. The intensities of the bands corresponding to farnesylated and nonfarnesylated ras proteins were compared to determine the percent inhibition of farnesyl transfer to protein.

| SMILES | pIC50 |
| --- | --- |
| CCC[C@H](/C=C/[C@@H](NC[C@@H](N)CS)[C@@H](C)CC)C(=O)N[C@H]1CCOC1=O [5(S)-2(R)-amino-3-mercaptopropylamino!-6(S)-methyl-2(R)-n-propyl-3,4-E-octenoyl-homoserine lactone] | 5.30 |
| CC[C@H](C)[C@@H](/C=C/[C@H](C(=O)N[C@@H](CCSC)C(=O)OC)C(C)C)NC[C@@H](N)CS [5(S)-2(R)-amino-3-mercaptopropylamino!-6(S)-methyl-2(R)-i-propyl-3,4-E-octenoyl-methionine, methyl ester] | 7.00 |
| CC[C@H](C)[C@@H](/C=C/[C@H](C(=O)N[C@H]1CCOC1=O)C(C)C)NC[C@@H](N)CS [5(S)-2(R)-amino-3-mercaptopropylamino!-6(S)-methyl-2(R)-i-propyl-3,4-E-octenoyl-homoserine lactone] | 5.60 to 6.00 |
| CCCC[C@H](/C=C/[C@@H](NC[C@@H](N)CS)[C@@H](C)CC)C(=O)N[C@@H](CCSC)C(=O)OC [5(S)-2(R)-amino-3-mercaptopropylamino!-6(S)-methyl-2(R)-n-butyl-3,4-E-octenoyl-methionine, methyl ester] | 6.00 |
| CC[C@H](C)[C@@H](/C=C/[C@@H](Cc1ccccc1)C(=O)N[C@@H](CCSC)C(=O)OC)NC[C@@H](N)CS [5(S)-2(R)-amino-3-mercaptopropylamino!-6(S)-methyl-2(R)-benzyl-3,4-E-octenoyl-methionine, methyl ester] | 6.00 |
| CC[C@H](C)[C@@H](/C=C/[C@@H](Cc1ccccc1)C(=O)N[C@H]1CCOC1=O)NC[C@@H](N)CS [5(S)-2(R)-amino-3-mercaptopropylamino!-6(S)-methyl-2(R)-benzyl-3,4-E-octenoyl-homoserine lactone] | 5.00 to 5.30 |
| CC(C)[C@H](/C=C/[C@@H](NC[C@@H](N)CS)C(C)C)C(=O)N[C@H]1CCOC1=O [5(S)-2(R)-amino-3-mercaptopropylamino!-6-methyl-2(R)-i-propyl-3,4-E-heptenoyl-homoserine lactone] | 6.00 |
